Measured values published in ChEMBL document CHEMBL1135923, “Conceptually new low-calcemic oxime analogues of the hormone 1 alpha,25-dihydroxyvitamin D(3): synthesis and biological testing” (J Med Chem, 2002).

Columns and labels:
[1] = target: T1, Vitamin D3 receptor (Rattus norvegicus) (UniProt P13053); assay: Percent relative binding affinity for vitamin D receptor VDR; assay type: functional
T1 sequence (whole entry): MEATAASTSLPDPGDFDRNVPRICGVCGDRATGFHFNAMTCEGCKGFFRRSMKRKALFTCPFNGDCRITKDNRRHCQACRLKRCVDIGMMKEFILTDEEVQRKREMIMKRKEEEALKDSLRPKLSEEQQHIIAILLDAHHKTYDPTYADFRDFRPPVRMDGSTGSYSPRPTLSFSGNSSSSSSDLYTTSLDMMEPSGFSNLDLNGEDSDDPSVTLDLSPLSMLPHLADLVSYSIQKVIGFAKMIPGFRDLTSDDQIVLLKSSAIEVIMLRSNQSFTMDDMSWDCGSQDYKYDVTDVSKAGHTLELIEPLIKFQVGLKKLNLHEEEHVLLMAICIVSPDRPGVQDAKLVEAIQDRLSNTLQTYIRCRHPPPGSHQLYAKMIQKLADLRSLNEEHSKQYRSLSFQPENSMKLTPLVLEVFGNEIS

[2] = target: T1, Vitamin D3 receptor (Rattus norvegicus); assay: In vitro vitamin D receptor-mediated transcriptional activity in rat osteosarcoma ROS 17/2.8 cells

Row | RBA [1] [%] | ED50 [2] [nM] | Compound
1 | 3 | 10 | C=C1/C(=C\C=C2/CCC[C@]3(C)C([C@H](C)CCC/C(=N\O)C(C)(C)C)=CC[C@@H]23)C[C@H](O)C[C@H]1O
2 |  | 0.4 | C=C1/C(=C\C=C2/CCC[C@]3(C)[C@@H]([C@H](C)CCCC(C)(C)O)CC[C@@H]23)C[C@@H](O)C[C@@H]1O
3 | < 3 | 2 | C=C1/C(=C\C=C2/CCC[C@]3(C)C([C@H](C)CCC/C(=N\OC)C(C)(C)C)=CC[C@@H]23)C[C@H](O)C[C@H]1O
4 | 35 | 0.1 | C=C1/C(=C\C=C2/CCC[C@]3(C)C([C@H](C)CCCC(=O)C(C)(C)C)=CC[C@@H]23)C[C@H](O)C[C@H]1O
